Test results as given in US20050136536A1, “Embryonic epithelial cells” (priority 2003, published 2005).

Tested on: cytokeratin 7
Assay: differentiation of hES cells on gelatin-coated glass slides, cytokeratin 7 staining
Format: cell-based, human
Details: 300 nM AM580, serum medium, stained after 6 or 8 days
Procedure: H9 cells (Thomson, J. A., et al., “Embryonic stem cells lines derived from human blastocysts”, Science 282, 1145-1147 (1998)) were grown as described in Spradling, A., et al., “Stem cells find their niche”, Nature 414, 98-104 (2001), the entire contents of which are incorporated herein by reference. C2C12 cells were grown as described in Yaffee, D. & Saxel, O., “Serial passaging and differentiation of myogenic cells isolated from dystrophic mouse muscle”, Nature 270, 725-7 (1977). Specifically, hES cells (H9 clone) were grown on mouse embryo fibroblasts (Cell Essential) in KnockOut Medium (Gibco-BRL, Gaithersburg, Md.), a modified version of Dulbeco's modified Eagle's medium optimized for ES cells (Itskovitz-Eldor, et. al., (2000) Mol. Med. 6, 88-95, the contents of which are incorporated herein by reference). Tissue cover plates were covered with 0.1% gelatin (Sigma). Culture were grown in 5% CO2 and were routinely passaged every 5-6 days after disaggregating with 1 mg/ml collagenase type IV (Gibco-BRL). To induce formation of EBs, hES colonies were digested using either 1 mg/ml collagenase type IV or trypsin/EDTA (0.1%/1 mM) and transferred to petri dishes to allow their aggregation and prevent adherence to the plate. […]

Question: With CC1(C)CCC(C)(C)c2cc(C(=O)Nc3ccc(C(=O)O)cc3)ccc21 [AM580] as the compound, how does the “development of cytokeratin 7-positive cells” value read?
Answer: increases the development of cytokeratin 7-positive cells
